Measured values: a melting point compilation (Tetko et al.; mined from patent text by program, amines drawn as free bases though some values may be those of a salt)

First: CCN1C(C(=O)Nc2ccccc2)=C(O)c2ccc3ccccc3c2S1(=O)=O
Second: Cc1nc2c(N)nc3ccccc3c2n1CCCCCNC(=O)c1ccccc1
The melting point of the first is higher: 245 to 247 °C for the first, 110 to 120 °C for the second.

First: CC(O)C(=O)NC1CCC(CC2CCC(NC(=O)C(C)O)CC2)CC1 (centres undefined)
Second: CC(C)(C)CC(=O)N[C@H]1CC[C@H](CCN2CCN(c3nccc4c3OCC4)CC2)CC1
The melting point of the first is higher: 195 to 199 °C for the first, 193 °C for the second.

First: O=c1cc(-c2ccc(O)c(F)c2)oc2ncccc12
Second: O=C(O)Cc1cccc2c(-c3ccc([N+](=O)[O-])cc3)nccc12
The melting point of the first is higher: 267 to 268 °C for the first, 252 to 254 °C for the second.

First: Clc1ccc(-c2nnnn2Cc2ccccc2)s1
Second: CSC1CC(=O)N1Cc1ccccc1 (centres undefined)
The melting point of the first is higher: 176 to 177 °C for the first, 26 to 28 °C for the second.

Compared with `Cc1c(-c2cc(CO)c(Cl)cc2F)nn(C)c1C(F)(F)F`, `Cc1cc(Cl)c(O)c(CN(C)C2CCCCCCC2)c1` is higher in melting point: 58 °C for the first, 101 °C for the second.

Compared with `Nc1c2c(nc3ccccc13)CCc1cn(N)nc1-2`, `COCCc1nc2c(N)nc3ccccc3c2n1CCOCCNC(=O)c1ccccc1` is lower in melting point: > 250 °C for the first, 184 to 187 °C for the second.

First: COc1cc(N)c(Cl)cc1C(=O)NC1CCN(CC2CCN(C(=O)Nc3ccccc3)CC2)CC1
Second: CCCNc1nc2ccccn2c(=O)c1-c1ccc(NC2CCN(C(=O)OC(C)(C)C)C2)cc1 (centres undefined)
The melting point of the first is higher: 212 to 214 °C for the first, 187 to 190 °C for the second.

First: CCCOc1ccc(CNC=C2C(=O)N(O)C(=O)c3ccccc32)cc1O
Second: O=c1[nH]c2cc(Cl)ccc2c(O)c1-c1cccc2ccccc12
The melting point of the first is lower: 176 to 178 °C for the first, > 350 °C for the second.

Compared with `CCC(=O)Oc1cccc2c1C(=O)c1c(OC(=O)CC)cccc1C2C(=O)CC`, `CCCCN(C(C)=O)C1NC(=O)N(c2ccc(OC(C)=O)cc2)C(=O)N1` is higher in melting point: 125 °C for the first, 206 to 208 °C for the second.

First: COc1cccc2c1Oc1sc(C)cc1C(=O)N2
Second: COc1ccc(CCC2SC(=O)NC2=O)c2ccc(=O)n(C)c12 (centres undefined)
The melting point of the first is lower: 160 to 164 °C for the first, 222 to 224 °C for the second.

Compared with `CCOC(=O)C(=O)Nc1c([N+](=O)[O-])sc2ccc([N+](=O)[O-])cc12`, `CCCCc1nn(-c2cc([N+](=O)[O-])ccc2Br)c(=O)[nH]1` is lower in melting point: 178 to 183 °C for the first, 125 to 127 °C for the second.

First: Cc1ccc(C2CC3C=CC2C3)n1CCC1CC(O)CC(=O)O1 (centres undefined)
Second: Cc1ccc(S(=O)(=O)OCC2C(CC(C)C3CCC4C(O)CCCC34C)N(C)OC2(C)C)cc1 (centres undefined)
The melting point of the first is higher: 125 to 126 °C for the first, 114 to 115 °C for the second.

First: CCCCn1cnnc1SC(=O)c1ccoc1
Second: COC(=O)c1cccc2c1nc(/C=C/c1ccc(OC)c(OC)c1)n2C
The melting point of the first is lower: 102 to 105 °C for the first, 187 to 189 °C for the second.

First: CCC1(COCc2ccccc2Cl)CCC(C)(C(N)=S)O1 (centres undefined)
Second: O=C(Cc1ccccc1Nc1c(Cl)cccc1Cl)OCI
The melting point of the first is higher: 78 to 80 °C for the first, 66 °C for the second.

Compared with `Fc1ccc(-c2ccc(CCNc3ncnc4nccnc34)cc2)cn1`, `CCCCCC1(C#N)CCC(c2ccc(-c3ccc(CCC)cc3)cc2)CC1` (centres undefined) is lower in melting point: 184 to 186 °C for the first, 75 °C for the second.

First: C#Cc1cccc(Nc2ncnc3cc(OCCOC(C)=O)c(OCCOC(C)=O)cc23)c1
Second: COc1cc2ncnc(N3CCCc4cc(C)ccc43)c2cc1OC
The melting point of the first is lower: 137 to 138 °C for the first, 147 to 148 °C for the second.

First: CC(C)C[C@H](NC(=O)OCc1ccccc1)C(=O)N[C@H]1CCOC1O (some centres undefined)
Second: COC(=O)C(Cc1cccs1)NC(=O)[C@H](Cc1cccc2ccccc12)NC(=O)OCc1ccccc1 (mixture of isomers)
The melting point of the first is lower: 48 to 49 °C for the first, 140 to 141 °C for the second.

Compared with `N#CCc1c(-c2ccccc2)sc2ccc(Cl)cc12`, `NN=C1c2ccccc2-c2ccc(Cl)cc21` is lower in melting point: 158 to 160 °C for the first, 139 to 143 °C for the second.

`O=S1(=O)CCC(NCCNC2CCS(=O)(=O)C2)C1` (centres undefined) and `O=C(CCCCNC(=O)C(=O)c1cn2c3c(cccc13)CCC2)NOCc1ccccc1` cannot be ordered by melting point: 60 to 85 °C for the first, 62 to 64 °C for the second.

Compared with `CCN(CC)c1ccc2c(C)c(C#Cc3ccccc3)c(=O)oc2c1`, `CC(=O)N1c2cc(Cl)ccc2OP1c1ccccc1` (centres undefined) is lower in melting point: 142 to 144 °C for the first, 56 to 58 °C for the second.

Compared with `CC(/C=C/n1ncc(-c2ccc(S(N)(=O)=O)cc2)c(-c2ccc(F)cc2)c1=O)C(F)(F)F` (centres undefined), `COc1ccc(S(=O)(=O)C2(CCC/C=C/c3ccc(Cl)cc3)SC(=O)NC2=O)cc1` (centres undefined) is higher in melting point: 155 to 157 °C for the first, 182 to 184 °C for the second.

First: CC(=O)C(=Cc1cc(Cl)cc(Cl)c1)C(C)=O
Second: CC(=O)Oc1cc(C)cc(C(=O)Cl)c1C
The melting point of the first is higher: 85 to 87 °C for the first, 52 to 54 °C for the second.

First: COc1nc2cc(C)c(Cl)c(N)c2nc1OC
Second: COC(=O)c1nc(C2CC2)nc(SC)c1Cl
The melting point of the first is higher: 169 to 170 °C for the first, 74 to 75 °C for the second.

Compared with `CC(C)(C)c1cc(CCC(=O)NN2C(=O)C=CC2=O)cc(C(C)(C)C)c1O`, `CC(C)CCS(=O)(=O)NC(=O)CCc1cc(OC(C)C)nn1Cc1ccc(Cl)cc1Cl` is higher in melting point: 90 to 94 °C for the first, 143 to 145 °C for the second.

First: CC(C)C1(C)N=C2c3nc4sccc4cc3C(=O)N2C1=O (centres undefined)
Second: COC(=O)c1cc(CBr)cnc1C1=NC(C)(C(C)C)C(=O)N1C(=O)c1ccccc1 (centres undefined)
The melting point of the first is higher: 214 to 216 °C for the first, 88 to 119 °C for the second.

First: CNC(=S)N1CCc2[nH]cnc2C1c1cccs1 (centres undefined)
Second: COc1ccc(NC(=O)c2ccc(Cl)c(Cl)c2)cc1NCc1cccs1
The melting point of the first is higher: 215 °C for the first, 185 to 188 °C for the second.

First: Cc1cc(Cl)cc(C#N)c1
Second: N#Cc1cccnc1Oc1cccc(Cl)c1
The melting point of the first is higher: 132 to 133 °C for the first, 88 to 90 °C for the second.

Compared with `Fc1ccc(Br)nc1Br`, `CC1(C(O)CBr)COc2cc(Cl)ccc2O1` (centres undefined) is higher in melting point: 47 to 48 °C for the first, 133 to 135 °C for the second.

First: CC(C)(C)c1cc(CCc2cc(CO)cc(CCc3cc(C(C)(C)C)cc(C(C)(C)C)c3)c2)cc(C(C)(C)C)c1
Second: CCOC(=O)Cc1ccc(Nc2ccnc(Nc3cc(OC)c(OC)c(OC)c3)n2)cc1
The melting point of the first is lower: 101 °C for the first, 143 to 144 °C for the second.

First: CC1(C)CCC(C)(C)c2cc(C(=O)SCc3ccc(C(=O)O)cc3)ccc21
Second: CCN(CC)C(=O)c1cc(C)ccc1-c1ccc(OC)cc1
The melting point of the first is higher: 150 to 151 °C for the first, 113 to 114 °C for the second.

Compared with `Cc1ccc(Oc2ccc(C=O)cc2)c(O)c1`, `COc1cccc(Oc2ccc(C(=O)N(C(C)C)C3CCCCC3)cc2)c1` is higher in melting point: 46 to 48 °C for the first, 101 °C for the second.

First: c1cnn(-c2ccnc(-n3cccn3)n2)c1
Second: O=C(Nc1ccc(CNc2nc(NC3CC3)nc3ccccc23)cc1)c1ccc(F)cc1
The melting point of the first is lower: 152 to 153 °C for the first, 189 °C for the second.

First: COC(=O)c1sc(S(C)(=O)=O)cc1O
Second: Cc1ccc(SCC(=O)c2cc(O)c(O)c([N+](=O)[O-])c2)cc1
The melting point of the first is higher: 138 to 140 °C for the first, 115 to 116 °C for the second.

Compared with `CCCc1c(OCCCCCOc2ccc(C(=O)c3ccccc3CC(=O)O)cc2CCC(=O)O)ccc2c1OCCC2=O`, `CCOP(=O)(Cc1ccc(NC(=O)Cc2cnoc2-c2ccccc2)cc1)OCC` is higher in melting point: 105 to 108 °C for the first, 132 to 133 °C for the second.

Compared with `Cc1cc(-c2ccccc2)nc(SSc2nc(-c3ccccc3)cc(C)c2C#N)c1C#N`, `CC(C)c1nc2c3c(c(C(=O)N(C)C)cc2n1C)CCC(c1ccccc1)O3` (centres undefined) is lower in melting point: 200 to 201 °C for the first, 179 to 180 °C for the second.

First: CCCNC(=S)Nc1nc2ccc(OC(F)(F)F)cc2s1
Second: CC(C)=CCC/C(C)=C/CSc1nc2cc(Cl)ccc2[nH]1
The melting point of the first is higher: 226 to 228 °C for the first, 102 to 104 °C for the second.

First: O=C1C2=C(CCCC2)C(=S)N1c1ccc(Cl)cc1F
Second: O=c1ccn([C@H]2[C@H](O)[C@H](O)[C@@H](CO)C23CC3)c(=O)[nH]1
The melting point of the first is lower: 101 to 102 °C for the first, 114 to 116 °C for the second.
